# From patent US11377656B2, “Chemically modified messenger RNA's” (Novartis AG, priority 2016, dated 2022)
# Test system: HEK293 cells
# Experiment: Modified mRNA transfection and in vitro translation (secreted leptin ELISA)
# Type: cell-based
# Details: 1.5 micrograms capped leptin mRNA, Lipofectamine 2000, secreted leptin in medium at 24 h post-transfection
# Description: Prior to transfection, the cells were seeded at a density 5×10^5 cells per well in 6-well plates. The following day, 1.5 micrograms of capped unmodified or chemically modified leptin mRNA was complexed with Lipofectamine 2000 (Life Technologies) and transfected into cells according to the manufacturer's protocol. At 24 h post-transfection, secreted leptin protein concentration in the culture medium was measured by an Enzyme-linked immunosorbent assay (ELISA) using the Human Leptin Quantikine ELISA kit from R&D Systems (Minneapolis, Minn.). Protein expression levels for chemically modified mRNAs are shown as a percent of the unmodified mRNA level.
row,Substance,In vitro translation (Protein quantity relative to unmodified mRNA in percentage)
1,1-methoxyethyl-pseudouridine [compound 11],<50%
2,1-methyoxymethyl-pseudouridine [compound 10],>50%
3,5-methoxycarbonyamino-uridine [compound 5],<50%
4,7-methyl-9-deazaguanosine [compound 16],<50%

# Target: T7 RNA polymerase (Escherichia phage T7, UniProt P00573)
# Experiment: In vitro transcription (IVT) of mRNA with modified NTP
# Type: biochemical
# Details: modified NTP at 100% substitution of the corresponding natural nucleotide; human leptin template; yield as percent of unmodified mRNA yield
# Source text: The modified synthetic mRNA was generated by in vitro transcription (IVT) incorporating the chemically modified nucleotide triphosphate (NTP) at 100% substitution of the corresponding natural nucleotide. The IVT plasmid template used contained a T7 promoter sequence and the human leptin coding sequence (Protein Accession #NP_000221) flanked by a 5′ untranslated region (UTR) of Tobacco Etch Virus with a strong Kozak sequence, and 2 tandem copies of the human beta-globin 3′UTR (Holtkamp S et al. (2006) Blood 108: 4009-4017) followed by a poly-A tail comprising 120 nucleotides in length.
# A typical in vitro transcription reaction was done using the following protocol:
# The IVT reagents in the Table above were mixed and incubated for 1-2 hours at 37° C. The DNA template was then digested with 0.04 U/μL DNase (New England Biolabs), and incubated for 30 minutes at 37° C. The mRNA was precipitated by adding lithium chloride (LiCl) solution (Ambion, Cat. #AM9480) to a final concentration of 2.81 M and incubating for >1 hour at −20° C. The mixture was centrifuged at 20,000×g for 15 minutes at 4° C., and then the supernatant was removed and the pellet washed with 70% ethanol. After centrifugation for 10 minutes, the ethanol was removed and the pellet was resuspended in nuclease-free water. In cases where the mRNA is used for HPLC purification, a second precipitation was done by adding 10% volume of 3 M sodium acetate pH 5.5 and 1 volume of room temperature isopropanol followed by incubation overnight at −20° C. The mRNA was centrifuged, washed and resuspended as described above. mRNA concentration was quantified using the NanoDrop and analyzed using an Agilent 2100 Bioanalyzer to confirm proper size and quality (i.e. no degradation). The modified mRNA can then be stored at −80° C. until capping.
# Sequence of T7 RNA polymerase (P00573 whole entry): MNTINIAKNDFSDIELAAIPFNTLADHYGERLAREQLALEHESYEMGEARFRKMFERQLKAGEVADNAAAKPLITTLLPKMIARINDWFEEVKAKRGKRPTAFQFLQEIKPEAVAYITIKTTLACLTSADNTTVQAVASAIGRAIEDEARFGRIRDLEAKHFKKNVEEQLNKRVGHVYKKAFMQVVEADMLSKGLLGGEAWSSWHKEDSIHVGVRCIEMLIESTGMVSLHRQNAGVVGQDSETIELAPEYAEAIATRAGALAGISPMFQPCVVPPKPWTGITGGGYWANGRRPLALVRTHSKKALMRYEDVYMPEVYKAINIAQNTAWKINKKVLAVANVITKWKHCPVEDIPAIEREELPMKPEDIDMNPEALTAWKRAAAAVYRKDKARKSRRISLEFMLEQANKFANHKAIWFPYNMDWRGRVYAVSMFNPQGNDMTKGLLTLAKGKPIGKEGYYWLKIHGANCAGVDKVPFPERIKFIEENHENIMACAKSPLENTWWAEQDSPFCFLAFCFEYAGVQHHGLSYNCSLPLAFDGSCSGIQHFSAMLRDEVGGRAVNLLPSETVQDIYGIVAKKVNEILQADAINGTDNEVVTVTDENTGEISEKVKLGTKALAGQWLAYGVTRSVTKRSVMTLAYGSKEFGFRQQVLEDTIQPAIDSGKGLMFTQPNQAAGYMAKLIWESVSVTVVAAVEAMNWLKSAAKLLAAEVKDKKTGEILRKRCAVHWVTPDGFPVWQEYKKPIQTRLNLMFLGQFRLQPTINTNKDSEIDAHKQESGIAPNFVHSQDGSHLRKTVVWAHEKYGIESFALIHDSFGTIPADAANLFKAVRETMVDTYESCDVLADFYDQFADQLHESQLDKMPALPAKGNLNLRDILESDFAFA
row,Substance,In vitro transcription (mRNA quantity relative to unmodified NTP in percentage)
1,1-methoxyethyl-pseudouridine [compound 11],>50%
2,1-methyoxymethyl-pseudouridine [compound 10],>50%
3,5-methoxycarbonyamino-uridine [compound 5],>50%
4,7-methyl-9-deazaguanosine [compound 16],>50%
